{"source": "patent US20150352114A1", "about": "“MITOTIC KINESIN Eg5 INHIBITING ANTICANCER AGENTS” (THE CLEVELAND CLINIC FOUNDATION, priority 2014, published 2015)", "key": {"NSTCs": {"tested_on": "NSTCs", "assay": "Dose response cell viability, CellTiter-Glo ATP-based assay, NSTCs", "conditions": "Homo sapiens, 0 to 32 nM, 72 hours", "description": "Human tissues were acquired from primary human brain tumor patient specimens in accordance with appropriate approved Institutional Review Board protocols. Tumor grade and available cytogenetic information for each specimen has been previously described. Tumor specimens were maintained through subcutaneous xenografts in the flanks of athymic Nu/Nu or NSG mice. Tumors were dissociated using a papain dissociation system (Worthington Biochemical, Lakewood, N.J.). […]\nThe half maximal effective concentration of ispinesib for acutely dissociated and MACS sorted matched GSCs and NSTCs was determined by plating, in triplicate, 1,000 cells per well of a 96 well plate pre-coated with GelTrex in growth-factor free Neuralbasal media. […] Viability was measured at 72 hours using CellTiter-Glo ATP-based assay (Promega, Madison, Wis.) read on a luminometer (Perkin-Elmer, Waltham, Mass.). […] The next day, cells were exposed to 3 nM ispinesib or vehicle (DMSO) and viability was measured daily for 5 days using CellTiter-Glo. Day 0 reading were taken immediately after addition of drug or vehicle. SubG1 for GSCs and NSTCs was determined by flow cytometry for propidium iodide and gated as the events below the 2N G1 peak of the resulting histogram. […] Cells were fixed at Day 0 through Day 4 in 100% cold ethanol and simultaneously processed for flow analysis with 20,000 events analyzed per condition."}, "[1]": {"tested_on": "orthotopic tumor from luciferase-expressing 3691 GSCs", "assay": "Orthotopic GBM xenograft model with systemic ispinesib", "assay_type": "in vivo, mice", "procedure": "The tumor was isolated 5 hours later and processed for immunofluorescence to βtubulin with the nuclei counterstained with DAPI. […] 7 days later when positive luminescence signal indicated tumor burden, mice were randomized into one of two treatment groups; vehicle only (DMSO; n=10) or 10 mg/kg ispinesib (n=10) administered on a q4d×6 dosing schedule. Arrows indicate day of vehicle or drug administration.\nSubcutaneous or intracranial tumors were fixed overnight in 4% PFA at 4° C., washed in PBS, cryoprotected in 30% sucrose, then embedded in optimal cutting temperature compound (OCT) and stored at −80° C. […] Sections were cut using a LeicaCMXXXX cryostat at 10 μm directly onto slides (Leica Microsystems Inc., Buffalo Grove, Ill.). Sections were postfixed for 15 minutes at room temperature in 4% PFA followed by PBS washes then incubated in blocking solution (5% goat serum, 0.1% Triton X-100 in PBS). Primary antibodies were diluted in blocking solution and used as follows overnight at 4° C.: Sox2 (rabbit, 1:500, Abcam, Cambridge, Mass., USA), atubulin (rat, 1:1000, AbD Serotec, Raleigh, N.C.). Secondary antibodies were Alexa Fluor (1:500, Invitrogen, Grand Island, N.Y., USA) labeled with 488 mixed in blocking solution and incubated for 2 hours at room temperature. DNA was stained using 4′,6-diamidino-2-phenylindole (DAPI, 10 μg/ml, Sigma, St Louis, Mo., USA) diluted in PBS for 5 minutes at room temperature.\nTo evaluate the efficacy of Eg5 inhibition in a more clinically relevant system, we utilized an orthotopic xenograft model to systemically deliver ispinesib. […] The tumor was sectioned and probed for tubulin to evaluate for the presence of mono-astral spindles, a hallmark of Eg5 inhibition."}, "GFP-positive tumor cells": {"tested_on": "GFP-positive tumor cells", "assay": "Brain slice culture time-lapse cell migration, PDGF-IRES-GFP retrovirus glioma model", "assay_type": "cell-based, rat", "conditions": "200 nM", "description": "The PDGF-IRES-GFP retrovirus was produced according to well known methods previously described. P3 neonatal Sprague-Dawley rats were anesthetized using hypothermia. Briefly, each pup was carefully wrapped in several layers of gauze and then covered with ice. After 12 minutes, the rat pup's head was placed in a DKI 963 Stereotaxic Alignment Instrument (David Kopf Instruments, Tujunga, Calif.). The bregma was identified and using a sterile 18 gauge needle a small hole was poked into the skull that was 1 mm rostral and 2 mm to the right of the bregma. A 27-gauge Hamilton microsyringe (Reno, Nev.) was then inserted to a depth of 1.5 mm, and 2 ul of virus was injected at a rate of 0.2 ul/min.\nAt days P8, P9, and P10, PDGF-IRES-GFP injected rat pups were anesthetized with Ketamine/Xylazine cocktail and decapitated. Brains were isolated and 300-um coronal sections were taken in the vicinity of the injection site using a McIlwain tissue chopper. The slices were transferred onto a porous 0.4-um culture plate insert (Millipore, Billerica, Mass.) and then placed into Glass Bottom 6 well plates (P06G-0-20-F, MatTek Corp, Ashland, Mass.) containing slice culture media (MEM, 2 mM L-glutamine, […], 10% Glucose, Its (Sigma, 12521) and Anti-Anti (Gibco, 15240-062)). Microglial and perivascular cells of the brain sections were stained with Isolectin GS-IB4, Alexa fluor 594 conjugate (Invitrogen) for 30 minutes at 37° C., washed three times with PBS and returned to a humidified atmosphere at 5% (CO2). Images of the brain slices for time-lapse microscopy were acquired with a Perkin Elmer UltraView Spinning Disk microscope on a Leica DMI 6000 with a 10× Plan Apo 0.4 NA objective lens. During imaging, the brain slices were placed in a stage mounted 37° C. incubator where 60% humidity and 5% CO2 was maintained. The emission range for 488 and 561 is […] and 580-650, respectively and acquisition and analysis were performed using Velocity software. The migratory path of the individual cells was then tracked every 7 minutes by marking the position of the cell body at consecutive time points.\nFluorescence, time-lapse image stacks consisting of ˜150 frames (7 minute intervals) were imported into Image-Pro Plus (v7.0, Media Cybernetics, Silver Spring, Md.). Gliomal cell tracking for each treatment group (55 cells/group) was performed in a semi-automated fashion using a combination of Fourier correlation and user-guided input. Cells selected for tracking were chosen randomly from the periphery of the tumor mass in each image stack. X and Y coordinates from each cell track were exported to Excel and translated such that each cell's track originated from a common origin (0,0). […] Mean-squared displacement for tracked cells in each group was analyzed using a persistent random-walk model (1,2). Speed (um/s) and persistence (min) were extracted using a non-linear least-squared regression to the model equation for each track and averaged for each treatment group."}, "[2]": {"tested_on": "human brain microvascular endothelial cells", "assay": "Endothelial tube formation on Matrigel", "assay_type": "cell-based", "conditions": "200 nM; 6-hour time course", "description": "Primary Human Brain Microvascular Endothelial Cells were purchased from Cell Systems (Kirkland, Wash.) and used at passages 3 through 6. Cells were maintained in EGM-2 MV media from Lonza (Walkersville, Md.) and stained with CellTracker™ Green CMFDA Dye from Invitrogen (Eugene, Oreg.) for fluorescent imaging. Tube formation assays were performed on Matrigel from Corning (Tewksbury, Mass.) in glass bottom 6-well plates from MatTek (Ashland, Mass.). Cells were plated at a density of 1.3×10^4 per cm^2 and imaged at the indicated times."}, "cell lines": {"tested_on": "cell lines", "conditions": "cited from earlier work"}, "[3]": {"conditions": "Persistent Random Walk model fit"}}}
{"smiles": "Cc1ccc(C(=O)N(CCCN)[C@@H](c2nc3cc(Cl)ccc3c(=O)n2Cc2ccccc2)C(C)C)cc1", "note": "[ispinesib, N-(3-amino-propyl)-n-[R-1-(3-benzyl-7-choloro-4-oxo-3,4-dihydroquinazolin-2-yl)-2-methyl-propyl]-4-methyl-benzamide methanesulfonate]", "values": [{"measurement": "EC50", "setting": "NSTCs", "value": "1.79 ± 0.22", "unit": "nM"}, {"measurement": "median survival", "setting": "[1]; 10 mg/kg q4d×6 intraperitoneal", "value": 36, "unit": "days"}, {"measurement": "survival versus vehicle", "setting": "[1]; 10 mg/kg q4d×6 intraperitoneal, p<0.001", "value": "significant survival advantage"}, {"measurement": "mono-astral spindles in intracranial tumor", "setting": "[1]; single 10 mg/kg dose, tumor harvested 5 hours later", "value": "numerous cells with mono-astral spindles"}, {"measurement": "tumor dispersion (Wind Rose plots, MSD)", "setting": "GFP-positive tumor cells", "value": "clear reduction in tumor dispersion"}, {"measurement": "reduction in mean squared displacement", "setting": "GFP-positive tumor cells; versus control", "value": "approximately four-fold"}, {"measurement": "reduction of cell velocity", "setting": "GFP-positive tumor cells; versus control", "value": "approximately two-fold"}, {"measurement": "cell velocity", "setting": "GFP-positive tumor cells; [3]", "value": "11.3±0.2", "unit": "μm/hr"}, {"measurement": "persistence time", "setting": "GFP-positive tumor cells; [3]", "value": "2.3 ± 0.1", "unit": "h"}, {"measurement": "endothelial tube formation", "setting": "[2]", "value": "failed to properly organize into tubes"}, {"measurement": "efficacy in cell lines tested", "setting": "cell lines", "value": "nanomolar efficacy"}]}
